# Earlier results as cited in patent US6410601B1, “Histochrome and its therapeutic use in acute myocardial infarction and ischemic heart disease” (priority 1998, dated 2002).
# Tested on: patients with acute myocardial infarction
# Details: 10 mg/kg intravenously before thrombolytic reperfusion
compound,measurement,setting,value
CCc1nc(C)ccc1O [Emoxipin],reduction of the size of the asynergic zone in the myocardium,"26 patients, control group 39.2%",59.5%
same,frequency of myocardial arrhythmias,control 28.1%,13.9%
same,lipid peroxidation in terms of malonic dialdehyde concentration,monotherapy 309%,60%
